Measured values taken from patent publication EP0412158A1, “ONCOSTATIC DRUG” (priority 1987, dated 1988).
Values joined by “and” are separate entries in the source; they are usually repeats but may differ in a detail not shown here. Equal entries are not always repeated. Marks after values point to notes of the source that are not given here.

How the values were obtained:
[1] = tested on: human breast cancer (MX-1); test: Human breast cancer MX-1, SRC method (Examples 29 and 30); assay type: in vivo, female ICR/cd-1 mice
[2] = tested on: MM-46 breast cancer; test: MM-46 breast cancer, evaluation by size of tumor (Examples 21 to 24); assay type: in vivo, female C3H/He mice; details: for Average weight of tumor / Number of tumorless mice /total number of mice / T/control: 100 mg/kg; for Average weight of tumor / Number of tumorless mice /total number of mice: ip × 9; for T/control: ip×9, tumor weight
Protocol: A polymolybdate, K6[Mo7022(02)2]8H20 (Compound I), and the aforementioned other compounds (Compounds J to L) were severally dissolved in distilled water to obtain aqueous solutions containing the compounds in a fixed concentration of 10 mg/mi. To female C3H/He mice (five weeks old) to which MM-46 breast cancer had been transplanted, the aqueous solutions were administered to test the compounds for antineoplastic activity. To be more specific, the MM-46 breast cancer was transplanted to the mice at a ratio of 5.0 x 10^5 cells per mouse and the aqueous solutions were continuously administered (at a dose of 100 mg/kg of body weight) by intraperineal injection for nine days. On elapse of 14 days after the stop of the administration, the size of tumor in the mice was measured. For comparison, mice to which the aqueous solution was not administered and mice to which aminonitroso urea was administered were similarly tested.

[3] = tested on: MM-46 breast cancer; assay type: in vivo, female C3H/He mice; details: 100 mg/kg, ip × 9
Protocol: The active compounds, I to L, mentioned above were severally dissolved in distilled water to obtain aqueous solutions containing the compounds in a fixed concentration of 10 mg/ml. To female C3H/He mice (five weeks old) to which the MM-46 breast cancer had been transplanted in a ratio of 1.0 x 10^5 cells per mouse, the aqueous solutions were continuously administered at a dose of 100 mg/kg of body weight by intraperitoneal injection for nine days to determine the mice's periods of survival. For comparison, mice to which no aqueous solution was administered and mice to which aminonitrosourea was administered were similarly tested.

[4] = tested on: methyl cholanthrene A tumor; test: Antineoplastic activity against transplanted methyl cholanthrene A tumor, evaluation by size of tumor (Examples 1 to 6); assay type: in vivo, female BALB/C mice; details: No. 3, 25 mg/kg, ip×9
Protocol: By dissolving alkylammonium salt of polymolybdic acid [NH3C3H7(iso)]s [Mo7O24] • 3H2O (Compound A) and other compounds (Compounds B to D) severally in distilled water, aqueous solutions containing the compounds in a fixed concentration of 10 mg/ml were obtained. These aqueous solutions were administered to female BALB/C mice (five weeks old) to which methyl cholanthrene A tumor had been transplanted to test the compounds for antineoplastic activity. To be specific, methyl cholanthrene A was transplanted to the mice in a ratio of 1.0 x 10^5 cells per mouse and the aqueous solutions were continuously administered to the mice by intraperitoneal injection ([…]) for nine days. On elapse of 14 days following the start of the administration, the tumors in the mice were measured. For comparison, mice to which no antineoplastic .drug was administered and mice to which aminonitroso urea was administered were tested by following the procedure described above.

[5] = tested on: methyl cholanthrene A; test: Methyl cholanthrene A tumor, evaluation by extension of period of survival (Examples 7 to 11); assay type: in vivo, female BALB/C mice; details: No. 2, 25 mg/kg
Protocol: The aforementioned compounds, A to D, were severally dissolved in distilled water to obtain aqueous solutions containing the compounds in a fixed concentration of 10 mg/ml. To the female BALB/C mice (five weeks old) to which methyl cholanthrene A had been transplanted in a ratio of 1.0 x 10^5 cells per mouse, […] to determine the mices' periods of survival. For comparison, mice to which no antineoplastic drug was administered and mice to which aminonitroso urea was administered were similarly tested.

[6] = 30 mg/kg ip(×5), individual mice
[7] = 129 mg/kg po(×5), individual mice
[8] = 257 mg/kg po(×5), individual mice
[9] = 100 mg/kg ip(×5), individual mice

## O=c1[nH]cc(F)c(=O)[nH]1 [Compound 5-FU, 5-fluorouracil]
[1]; 30 mg/kg ip(×5)
  T/C: 56.48* %
[1]; 30 mg/kg ip(×5), group mean
  T7/To: 0.779±0.072
[1]; [6]
  T7/To: 0.839 and 0.576 and 0.917 and 0.786
  Tumor 7 days after transplantation (T7): 13.0 omu and 7.5 omu and 16.5 omu and 11.0 omu

## [NH3 (iso)]6 [Mo7O23(O2)] • 5H20 [Compound L]
[2]
  Average weight of tumor: 1085.6±133.2** ** mg
  Number of tumorless mice /total number of mice: 0/8
  T/control: 00.380
[3]
  Average number of days of survival: 32.1±3.9(8) days
  Average weight of tumor after 14 days: 1086 ± 132(8) mg
  Ratio of elongation of life (5): 94.5

## K6 [Mo7O23(O2)] • 8H2O [Compound K]
[2]
  Average weight of tumor: 1139.5±221.1(8 ) mg
  Number of tumorless mice /total number of mice: 0/8
  T/control: 0.399
[3]
  Average number of days of survival: 32.1±2.7(8) days
  Average weight of tumor after 14 days: 1140± 221(8) mg
  Ratio of elongation of life (5): 94.5

## [NH3C3H7(iso)]6 [Mo7O24H] mixture [Compound C]
[4]
  Average weight of tumor: 1425.2±130.6(10) mg
  Number of tumorless mice /total number of mice: 0/10
[4]; body weight 13 days after transplantation
  Change in body weight: -2.19 g
[4]; tumor weight
  T/control: 0.553
[5]; ip×9
  Average number of days of survival: 30.2±2.0(10) days
  Number of toxically killed mice/total number of mice: 0/10
[5]; ip×9, D1~D9
  Change in body weight: -2.19 g
[5]; ip×9, days of survival
  T/control: 134.2

## CCCCCCNC(=O)n1cc(F)c(=O)[nH]c1=O [HCFU(Mifur ol)]
[1]; 129 mg/kg po(×5)
  T/C: 61.15* %
[1]; 129 mg/kg po(×5), group mean
  T7/To: 0.844±0.040
  W7/Wo: 1.104±0.037
[1]; [7]
  Body weight 7 days after transplantation (W7): 21.3 g and 22.7 g and 21.8 g and 23.7 g
  T7/To: 0.929 and 0.885 and 0.741 and 0.821
  Tumor 7 days after transplantation (T7): 13.0 omu and 11.5 omu (2×) and 10.5 omu
  W7/Wo: 1.087 and 1.207 and 1.028 and 1.097
[1]; 257 mg/kg po(×5)
  T/C: 66.82* %
[1]; 257 mg/kg po(×5), group mean
  T7/To: 0.922±0.042
  W7/Wo: 1.080±0.035
[1]; [8]
  Body weight 7 days after transplantation (W7): 21.7 g and 23.2 g and 18.2 g and 19.4 g
  T7/To: 0.896 and 1.037 and 0.833 and 0.923
  Tumor 7 days after transplantation (T7): 13.0 omu and 14.0 omu and 12.5 omu and 12.0 omu
  W7/Wo: 1.109 and 1.166 and 1.011 and 1.037

## K6 [Mo7O22(O2)2] • 8H2O [Compound I]
[2]
  Average weight of tumor: 1134.9±184.5(1 0) mg
  Number of tumorless mice /total number of mice: 0/10
  T/control: 0.397
[2]; 100 mg/kg.ip for nine days, judged by increase of body weight, result in words
  toxicity: very low toxicity
[3]
  Average number of days of survival: 33.1±2.9(8) days
  Average weight of tumor after 14 days: 1135 ±185(8) mg
  Ratio of elongation of life (5): 100.8
  ratio of elongation of life: 100.8%
[1]; 100 mg/kg ip(×5)
  T/C: 57.28 8* %
[1]; 100 mg/kg ip(×5), group mean
  T7/To: 0.790±0.077
  W7/Wo: 1.068±0.008
[1]; [9]
  Body weight 7 days after transplantation (W7): 21.0 g and 20.5 g and 21.4 g and 20.6 g
  T7/To: 0.875 and 0.941 and 0.760 and 0.586
  Tumor 7 days after transplantation (T7): 10.5 omu and 8.0 omu and 9.5 omu and 8.5 omu
  W7/Wo: 1.061 and 1.057 and 1.092 and 1.062
[1]; result in words
  antineoplastic activity: strong antineoplastic activity
